Measurements published in US20060142337A1, “Piperidine derivative and use thereof” (priority 2004, published 2006).

target: T1, substance P receptor (Homo sapiens, UniProt P25103); experiment: Radioligand receptor binding inhibitory activity using receptor from human lymphoblast cells (IM-9); settings: [125I]-BHSP binding, receptor from IM-9 cells, 25 C, 30 min
T1 construct: endogenous in cells; host or cells: IM-9 human lymphoblast cells (membrane preparation)
Method: Radioligand receptor binding inhibitory activity (Binding inhibitory activity using receptor from human lymphoblast cells (IM-9))
The method of M. A. Cascieri et al., “Molecular Pharmacology 42, p. 458 (1992)” was modified and used. The receptor was. prepared from human lymphoblast cells (IM-9). IM-9 cells (2×10^5 cells/mL) were incubated for 3 days (one liter), which was then subjected to centrifuge for 5 min. at 500×G to obtain cell pellets. The obtained pellets were washed once with phosphate buffer (Flow Laboratories, CAT. No. 28-103-05), which were then homogenized using Polytron homogenizer (“Kinematika”, Germany) in 30 mL of 50 mM Tris-HCl buffer (pH 7.4) containing 120 mM sodium chloride, 5 mM potassium chloride, 2 μg/mL chymostatin, 40 μg/mL bacitracin, 5 μg/mL phosphoramidon, 0.5 mM phenylmethylsulfonyl fluoride, 1 mM ethylenediamine tetra-acetate, which was subjected to centrifuge at 40,000×G for 20 min. The residue was washed twice with 30 mL of the buffer, which was then preserved frozen (−80° C.) as a specimen of the receptor.
The specimen was suspended in a reaction buffer (50 mM Tris-HCl buffer (pH 7.4), 0.02% bovine serum albumin, 1 mM phenylmethylsulfonyl fluoride, 2 μg/mL chymostatin, 40 μg/mL bacitracin and 3 mM manganese chloride) to have protein in the concentration of 0.5 mg/mL of protein and 100 μL portion of the suspension was used in the reaction. After addition of the sample and ^125]-BHSP (0.46 KBq), the reaction was allowed to proceed in 0.2 mL of reaction buffer at […] for 30 min. The amount of nonspecific binding was determined by adding substance P at a final concentration of 2×10^−6 M.
After the reaction, using a cell harvester (290 PHD, Cambridge Technology, Inc, U.S.A.), filtration was carried out through a glass filter (GF/B, Whatman, U.S.A.), which was immersed in 0.1% polyethyleneimine for 24 hrs. and dried. After washing three times with 250 μL of 50 mM Tris-HCl buffer (pH 7.4) containing 0.02% bovine serum albumin, the radioactivity remaining on the filter was. determined with a gamma counter.
The antagonistic activity of each compound obtained in Examples was determined in terms of the concentration necessary to cause 50% inhibition (IC50 value) under the above-described conditions, and the results were shown in Table 14.
The radio ligand means substance P labeled with [^125I].

T1 sequence (P25103 whole entry): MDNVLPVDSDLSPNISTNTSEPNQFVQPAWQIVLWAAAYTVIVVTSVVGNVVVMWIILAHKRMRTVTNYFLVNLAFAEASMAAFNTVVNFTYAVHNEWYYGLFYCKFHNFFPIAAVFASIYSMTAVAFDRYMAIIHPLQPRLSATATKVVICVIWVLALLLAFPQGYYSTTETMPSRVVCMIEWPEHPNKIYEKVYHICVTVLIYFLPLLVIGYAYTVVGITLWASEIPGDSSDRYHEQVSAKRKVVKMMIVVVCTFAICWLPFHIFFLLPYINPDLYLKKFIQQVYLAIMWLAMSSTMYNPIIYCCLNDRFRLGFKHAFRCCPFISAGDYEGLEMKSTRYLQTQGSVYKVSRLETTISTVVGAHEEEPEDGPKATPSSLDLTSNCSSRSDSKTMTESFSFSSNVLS

Row | IC50 [pM] | SMILES
1 | 99 | CCNC(=O)[C@H]1CC[C@H](C(=O)N2CC[C@H](O[C@H](C)c3cc(C(F)(F)F)cc(C(F)(F)F)c3)[C@H](c3ccccc3)C2)CC1 [Example 69, trans-4-[[(3R,4S)-4-[(1R)-1-[3,5-Bis(trifluoromethyl)phenyl]ethoxy]-3-phenylpiperidin-1-yl]carbonyl]-N-ethylcyclohexanecarboxamide]
2 | 94 | CC(=O)N1CCC(NC(=O)N2CC[C@H](O[C@H](C)c3cc(C(F)(F)F)cc(C(F)(F)F)c3)[C@H](c3ccccc3)C2)CC1 [Example 71, (3R,4S)-N-(1-acetylpiperidin-4-yl)-4-[(1R)-1-[3,5-bis(trifluoromethyl)phenyl]ethoxy]-3-phenylpiperidine-1-carboxamide]
3 | 91 | CCC(=O)N1CCC(NC(=O)N2CC[C@H](O[C@H](C)c3cc(C(F)(F)F)cc(C(F)(F)F)c3)[C@H](c3ccccc3)C2)CC1 [Example 72, (3R,4S)-4-[(1R)-1-[3,5-Bis(trifluoromethyl)phenyl]ethoxy]-3-phenyl-N-(1-propionylpiperidin-4-yl)piperidine-1-carboxamide]
4 | 97 | CC(=O)NC1CCN(C(=O)N2CC[C@H](O[C@H](C)c3cc(C(F)(F)F)cc(C(F)(F)F)c3)[C@H](c3ccccc3)C2)CC1 [Example 73, N-[1-[[(3R,4S)-4-[(1R)-1-[3,5-bis(trifluoromethyl)phenyl]ethoxy]-3-phenylpiperidin-1-yl]carbonyl]piperidin-4-yl]acetamide]
5 | 87 | CCC(=O)NC1CCN(C(=O)N2CC[C@H](O[C@H](C)c3cc(C(F)(F)F)cc(C(F)(F)F)c3)[C@H](c3ccccc3)C2)CC1 [Example 74, N-[1-[[(3R,4S)-4-[(1R)-1-[3,5-bis(trifluoromethyl)phenyl]ethoxy]-3-phenylpiperidin-1-yl]carbonyl]piperidin-4-yl]propanamide]
6 | 84 | C[C@@H](O[C@H]1CCN(C(=O)C2CC(=O)NC(=O)C2)C[C@H]1c1ccccc1)c1cc(C(F)(F)F)cc(C(F)(F)F)c1 [Example 76, 4-[[(3R,4S)-4-[(1R)-1-[3,5-Bis(trifluoromethyl)phenyl]ethoxy]-3-phenylpiperidin-1-yl]carbonyl]piperidine-2,6-dione]
7 | 62 | C[C@@H](O[C@H]1CCN(C(=O)C2CC(=O)N(C)C(=O)C2)C[C@H]1c1ccccc1)c1cc(C(F)(F)F)cc(C(F)(F)F)c1 [Example 77, 4-[[(3R,4S)-4-[(1R)-1-[3,5-Bis(trifluoromethyl)phenyl]ethoxy]-3-phenylpiperidin-1-yl]carbonyl]-1-methylpiperidine-2,6-dione]
8 | 96 | C[C@@H](O[C@H]1CCN(C(=O)CC2NC(=O)NC2=O)C[C@H]1c1ccccc1)c1cc(C(F)(F)F)cc(C(F)(F)F)c1 (stereo partly drawn) [Example 78, 5-[2-[(3R,4S)-4-[(1R)-1-[3,5-Bis(trifluoromethyl)phenyl]ethoxy]-3-phenylpiperidin-1-yl]-2-oxoethyl]imidazolidine-2,4-dione]
9 | 20 | C[C@@H](O[C@H]1CCN(C(=O)C2CCN(C(=O)Cn3cncn3)CC2)C[C@H]1c1ccccc1)c1cc(C(F)(F)F)cc(C(F)(F)F)c1 [Example 119, (3R,4S)-4-{(1R)-1-[3,5-Bis(trifluoromethyl)phenyl]ethoxy}-3-phenyl-1-([1-(1H-1,2,4-triazol-1-ylacetyl)piperidin-4-yl]carbonyl}piperidine]
10 | 21 | C[C@@H](O[C@H]1CCN(C(=O)C2CCN(C(=O)Cn3cccn3)CC2)C[C@H]1c1ccccc1)c1cc(C(F)(F)F)cc(C(F)(F)F)c1 [Example 122, (3R,4S)-4-{(1R)-1-[3,5-Bis(trifluoromethyl)phenyl]ethoxy}-3-phenyl-1-{[1-(1H-pyrazol-1-ylacetyl)piperidin-4-yl]carbonyl}piperidine]
